Assay results from patent EP4410284A1, “COMPOUND AND METHOD FOR THE TREATMENT OF ZELLWEGER SPECTRUM DISORDER” (Apteeus, priority 2023, dated 2024).
Like-named read-outs stand apart in the source and are kept apart here.

What was measured:
GM16513 cells [1] = experiment: Catalase import immunofluorescence, high-content screening (% importing cells); type: cell-based, human; conditions: for EC50 / Emax: Homo sapiens, 72 h; for Emax: read-out: Max Efficacy (% Importing cells)
GM16513 cells [2] = type: cell-based; conditions: 3 days, PI positive cells (dead cells)
Protocol: (§1) Images were acquired using the EnSight multimode plate reader (PerkinElmer) and analysis was done using Columbus analysis software (PerkinElmer). […] Then the total number of cells and the % of dead cells was calculated.
(§2) All HDAC inhibitors were tested at 1.3 and 10 µM for 3 days on GM16513 and PEX405 cells.

PEX405 cells [3] = experiment: Catalase import immunofluorescence, high-content screening (% importing cells); type: cell-based, human; conditions: PEX405 cells, 3 days
PEX405 cells [4] = type: cell-based; conditions: 3 days, PI positive cells (dead cells)
Protocol: as §1, §2

[5] = GM16513 cells, dose response with 6 concentrations, 3 days, read-out: EC50
[6] = GM16513 cells, dose response with 6 concentrations, 3 days

| Structure (SMILES) | % Importing cells (GM16513 cells [1]; GM16513 cells, 1.3 µM, 3 days) [%] | % Importing cells (GM16513 cells [1]; GM16513 cells, 10 µM, 3 days) [%] | % PI+ cells (GM16513 cells [2]; 1.3 µM) [%] | % PI+ cells (GM16513 cells [2]; 10 µM) [%] | % Importing cells (PEX405 cells [3]; 1.3 µM) [%] | % Importing cells (PEX405 cells [3]; 10 µM) [%] | % PI+ cells (PEX405 cells [4]; 1.3 µM) [%] | % PI+ cells (PEX405 cells [4]; 10 µM) [%] | EC50 (GM16513 cells [1]; [5]) [nM] | Emax (GM16513 cells [1]; [6]) [%] | EC50 (GM16513 cells [1]) [nM] | Emax (GM16513 cells [1]) [%] |
| --- | --- | --- | --- | --- | --- | --- | --- | --- | --- | --- | --- | --- |
| O=C(/C=C/c1ccc(CN(CCO)CCc2c[nH]c3ccccc23)cc1)NO [Dacinostat] | 88 | 76 | 31 | 35 | 25 | 0 | 45 | 56 | – | – | – | – |
| Cn1cc(-c2ccc(S(=O)(=O)n3ccc(/C=C/C(=O)Nc4ccccc4N)c3)cc2)cn1 [Domatinostat] | 21 | 33 | 6 | 7 | 4 | 7 | 5 | 8 | 600 | 33 | – | – |
| Cc1cc(Cl)ccc1OCCCC(=O)NO [Droxinostat] | 12 | 23 | 1 | 1 | 3 | 4 | 0 | 2 | – | – | – | – |
| Cn1c(CCCCCCC(=O)NO)nc2cc(N(CCCl)CCCl)ccc21 [EDO-S101] | 35 | 89 | 2 | 8 | 7 | 55 | 1 | 7 | – | – | 3000 | 90 |
| Nc1ccccc1NC(=O)c1ccc(CNC(=O)OCc2cccnc2)cc1 [Entinostat] | 45 | 58 | 2 | 7 | 15 | 12 | 2 | 6 | 470 | 54 | – | – |
| Cl.O=C(NO)c1ccc(Cn2cc(-c3ccc(CN4CCCC4)cc3)nn2)cc1 [FNDR-20123] | 84 | 47 | 11 | 40 | 7 | 0 | 9 | 61 | – | – | – | – |
| CC1(C)c2cccc(C(=O)NO)c2CN1c1cnc(C(F)(F)F)cn1 [FT895] | 14 | 4 | 1 | 7 | 1 | 0 | 0 | 1 | – | – | – | – |
| COc1ccc(-c2nc(N3CCOCC3)c3sc(CN(C)c4ncc(C(=O)NO)cn4)cc3n2)cn1 [Fimepinostat] | 81 | 61 | 25 | 29 | 25 | 4 | 43 | 55 | 10 | 92.5 | – | – |
| Oc1cc(O)cc(/C=C/c2c(O)cccc2O)c1 [Gnetol] | 12 | 9 | 1 | 1 | 2 | 3 | 1 | 1 | – | – | – | – |
| COc1ccc(/C=C/C(=O)NO)c(-c2ccc(-c3ccccc3)cc2)c1 [HDAC8-IN-1] | 10 | 3 | 2 | 14 | 2 | 0 | 0 | 2 | – | – | – | – |
| O=C(CCc1ccc(CN[C@H](C(=O)OC2CCCC2)C2CCCCC2)cn1)NO [HDAC-IN-3] | 50 | 81 | 3 | 26 | 11 | 0 | 4 | 43 | – | – | – | – |
| O=C(NO)c1ccc(CC(=O)N(CCO)c2ccccc2)cc1 [HPOB] | 29 | 55 | 1 | 1 | 6 | 13 | 1 | 1 | – | – | – | – |
| O=C(c1ccc(Cl)cc1Cl)n1nnc2ccccc21 [ITSA-1] | 9 | 12 | 1 | 1 | 3 | 1 | 0 | 0 | – | – | – | – |
| O=C(NO)c1ccc(Cn2c(=O)n(CCc3ccccc3)c(=O)c3ccccc32)cc1 [J22352] | 30 | 47 | 1 | 3 | 5 | 3 | 0 | 2 | – | – | – | – |
| O=C(NO)c1ccc(CN(c2cnccn2)c2cnccn2)cc1 [KA2507] | 17 | 52 | 1 | 2 | 2 | 18 | 1 | 1 | 14300 | 100 | – | – |
| Cc1cc(C)cc(C(=O)NOCCCCCC(=O)NO)c1 [LMK-235] | 86 | 95 | 2 | 15 | 45 | 18 | 1 | 16 | – | – | – | – |
| Cn1c(/C=C/C(=O)NO)ccc1/C=C/C(=O)c1cccc(F)c1 [MC1568] | 25 | 21 | 3 | 90 | 5 | 6 | 0 | 91 | – | – | – | – |
| O=C(NO)c1ccc(CNc2cccc3cccnc23)cc1 [MPT0G211] | 29 | 65 | 1 | 4 | 6 | 19 | 1 | 2 | – | – | – | – |
| O=C(/C=C/c1ccc(O)c(O)c1)c1ccc(O[C@@H]2O[C@H](CO)[C@@H](O)[C@H](O)[C@H]2O)c(O)c1O [Marein] | 20 | 22 | 1 | 77 | 5 | 4 | 0 | 74 | – | – | – | – |
| Nc1ccccc1NC(=O)c1ccc(CNc2nccc(-c3cccnc3)n2)cc1 [Mocetinostat] | 60 | 39 | 4 | 9 | 15 | 9 | 3 | 29 | 250 | 50 | – | – |
| Nc1ccccc1NC(=O)CCCCCC(=O)Nc1ccccc1 [NKL 22] | 28 | 55 | 1 | 4 | 7 | 13 | 0 | 1 | – | – | – | – |
